pIC50: −log10 of the molar value.
Molecular target: T1, human dihydroorotate dehydrogenase (hDHODH) (Homo sapiens, UniProt Q02127)
T1 construct: gene DHODH
Experiment: biochemical

T1 sequence (Q02127 whole entry): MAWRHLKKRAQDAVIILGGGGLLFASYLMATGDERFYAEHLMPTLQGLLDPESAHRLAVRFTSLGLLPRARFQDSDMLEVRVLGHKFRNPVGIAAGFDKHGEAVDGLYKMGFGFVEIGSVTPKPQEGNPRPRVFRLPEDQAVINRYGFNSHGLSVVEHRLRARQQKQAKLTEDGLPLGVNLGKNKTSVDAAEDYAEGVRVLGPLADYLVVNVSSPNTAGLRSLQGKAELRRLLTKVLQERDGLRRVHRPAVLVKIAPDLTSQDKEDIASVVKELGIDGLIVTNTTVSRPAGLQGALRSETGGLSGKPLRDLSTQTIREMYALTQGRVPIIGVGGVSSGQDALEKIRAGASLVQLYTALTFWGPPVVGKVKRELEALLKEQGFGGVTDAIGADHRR

| Compound | pIC50 |
| --- | --- |
| COc1cc(C2Oc3cc([C@H]4Oc5cc(O)cc(O)c5C(=O)[C@@H]4O)ccc3OC2CO)ccc1O (some centres unmarked) [Silibinin] | 6.92 |
| COc1cc([C@H]2Oc3c(O)cc([C@H]4Oc5cc(O)cc(O)c5C(=O)[C@@H]4O)cc3[C@@H]2CO)ccc1O [Silychristin B] | 6.78 |
